Experimental data reported in patent US20230029496A1, “AMINO ACID ALTERNATIVE CURING SYSTEM” (THE TEXAS A&M UNIVERSITY SYSTEM, priority 2019, published 2023).
Values joined by “and” are separate entries in the source; they are usually repeats but may differ in a detail not shown here. Identical values can stand only once. Like-named read-outs stand apart in the source and are kept apart here. Marks after values point to notes of the source that are not given here.

Key:
eNOS system [1] = test: Whole muscle injection or immersion of pork loin/tenderloin with L-arginine test brine without phosphate (Example 9): pH and cured color
Procedure: Two (N=2) pork loins were procured from the same batch previously described (Mar. 18, 2019 pack date). […] Initial muscle pH was prior to and after injection/immersion and the brine pH was measured as well (Table 11). […] No sodium tri-polyphosphate was added to the brine, only water, salt, arginine, and sodium erythorbate in the same concentration/percentage used for prior benchtop laboratory tests. […] Phosphate was eliminated from the test brine to decrease pH to increase the likelihood of the L-arginine activating the eNOS system found within the meat.
Four (N=4) tenderloins fabricated from four pork loins (Mar. 18, 2019 pack date) were subjected to immersion curing by placing them into the remaining (leftover) test brine (no injection) for approximately 18 hr. were immersed in the remaining brine to simulate previous test tube trials.
After thermal processing, each sample was sliced to determine if any nitrosylation or cure color formation occurred. […] Even though phosphate was not included in the formulation the brine pH was still high. […] It appears that the concentration of L-arginine and the high brine pH may not be at the right amount/level to achieve the desired cured meat reaction. Based on these product failures, it was decided to go back to use the original protocol used in laboratory testing—but use a waterproof sausage casings to create a “pilot plant tube” to make sure the results seen in the laboratory could be replicated in a pilot plant setting.

NOS system [2] = test: NO-heme, total heme, nitrosylation and cured color in test tube pork loin sausages (Example 11)
Description: Pork loins from a local meat distributor were procured on Mar. 18, 2019 and tested four weeks later on Apr. 18, 2019. A total of nine pounds of pork loins were split into thirds and ground through kidney, ½″, and ¼″ plates to make a restructured ham sausages formulated (Table 14) to contain either 1000 or 5000 ppm L-arginine which were stuffed in 2″ plastic casings and thermally processed. Three pounds of each grind size (9 pound batch) were mixed with high (5000 ppm), low (1000 ppm), or control (0 ppm) concentrations of brine at 25% addition using a Kitchen aid mixer. It was decided to lower the concentration of the L-arginine from 1500 ppm (Test 3) to 1000 ppm (Test 4) to verify that this concentration can generate acceptable levels of NO to develop cured color and residual nitrite for antioxidant and antimicrobial properties. Control and treatment met batches were stuffed in plastic casings in triplicate for each high, low, and control concentrations in one pound portions. […] The samples were tested for residual nitrite and nitroso-hemochromagen pigment (Table 14) one day after thermal processing cooking (April 19th to April 20th), then eight days after thermal processing on April 26th to determine any cure color fading and residual nitrite.

[3] = test system: Nitric Oxide Synthase (NOS) system; test: Residual nitrite in pre-rigor and post-rigor pork semimembranosus muscle immersed in L-arginine (Example 13); assay type: biochemical
Procedure: Pre-rigor pork semimembranosus muscle samples were collected from four pre-rigor pork carcasses (n=4) harvested at the Rosenthal Meat Science and Technology Center at Texas A&M University at three separate times over a three day period (N=12). Post-rigor pork semimembranosus muscle samples were collected from the same carcasses eighteen hours after harvesting to ensure the full onset and completion of rigor (N=12). Muscle samples were treated with the same five concentrations of L-arginine and water as the control treatment. Samples were either heated (water bath increasing from room temperature ([…]) to 62° C. for 60 min) or left raw/fresh (uncooked). The overall experiment was designed as a 6 (5 L-arginine concentrations and a control) by 4 (pork carcasses) by 2 (heating treatment (raw and cooked)) factorial replicated 3 times (collection) (N=144) for both pre-rigor and post-rigor muscle types.
Solutions were prepared by Wu's specifications to stabilize the muscle samples for enclosed reactions within 50 mL conical tubes. […] The NaCl was used to suspend and stabilize any reaction and the NaE was used to accelerate the cure reaction. The L-arginine (L-arginine monohydrochloride, Ajinomoto Inc., Raleigh, N.C.) concentrations were prepared separately for administration as a treatment once the five grams of meat were added to the reaction tubes at dilutions of 0 mM, 2 mM, 4 mM, 8 mM 16 mM, and 32 mM.
Residual nitrite was determine using the modified AOAC Official Method 973.31 (Nitrite Analysis in Cured Meats Procedure) and was verified by Wu with sample (plasma or serum) preparation for amino acid analysis by HPLC and determination of nitrite (UV/VIS Spectrophotometric Method). This method was used to best determine any residual nitrite found in samples to compensate for both pre-rigor and post rigor effects on detecting residual nitrite. All samples were tested one week later after being held in a −30° C. freezer then thawed in a 0° C. cooler.

eNOS system [4] = test system: eNOS system
Procedure: Two (N=2) of these pork loins were cut into four sections (˜1 kg; 8 pieces total) and weighed prior to injection with the test brine solution (Table 8). Initial muscle pH was prior to injection before injection (10, 15, 20 or 25%) as well as brine pH was measured (Table 9). The test brine was manufactured for a targeted 25% injection level (Table 8) and was prepared on the day of manufacture to simulate a commercial ham cure containing water, sodium tri-polyphosphate, salt (NaCl), L-arginine, sodium erythorbate (NaE) and sugar. […] Brine percentages were calculated to simulate ingoing arginine of test tube trials (5569 ingoing arginine, 547 ppm NaE, 0.9% NaCl).
Samples were weighed before and after injection to ensure pickup percentage as close to the target weights of 10, 15, 20, and 25% pickup. Samples were vacuum packaged and held for two hours before thermal processing to simulate previous laboratory test tube trials.
After cooking and stabilization at room temperature, loin sections were sliced perpendicular to the long axis of the muscle fibers to determine if any nitrosylation (nitric oxide (NO) bound to myoglobin) occurred, resulting in the characteristic cured (pink) color. […] Based on an ingoing L-arginine brine concentration of 5545 ppm, there would be approximately 554, 830 and 1110 and 1385 ppm of ingoing L-arginine at 10, 15, 20 and 25% injection levels, respectively.

NOS system [5] = test: NO-heme, total heme, nitrosylation and cured color in test tube pork loin sausages (Example 11); remark: listed apart in the source
[6] = High (5000 ppm) L-arginine, one day after thermal processing
[7] = Low (1000 ppm) L-arginine, 8 days post thermal processing
[8] = Low (1000 ppm) L-arginine, one day after thermal processing
[9] = 2 mM L-arginine, cooked supernatant
[10] = 2 mM L-arginine, raw supernatant, stored one week at -30° C.
[11] = 4 mM L-arginine, cooked supernatant
[12] = 4 mM L-arginine, raw supernatant, stored one week at -30° C.
[13] = 8 mM L-arginine, cooked supernatant
[14] = 8 mM L-arginine, raw supernatant, stored one week at -30° C.
[15] = 16 mM L-arginine, cooked pellet
[16] = 16 mM L-arginine, cooked supernatant
[17] = 16 mM L-arginine, raw supernatant, stored one week at -30° C.
[18] = 32 mM L-arginine, cooked pellet
[19] = 32 mM L-arginine, cooked supernatant
[20] = 32 mM L-arginine, raw supernatant, stored one week at -30° C.
[21] = High (5000 ppm) L-arginine, 8 days post thermal processing

Which results are given for `N=C(N)NCCC[C@H](N)C(=O)O` [L-arginine]?
nitrosylation or cure color formation after thermal processing (eNOS system [1]; injected loin sections and immersion cured tenderloins, cooked to 145° F.): no color change; End pH (eNOS system [1]; loin, 10% injection of test brine (Table 10)): 5.56; End pH (eNOS system [1]; loin, 15% injection of test brine (Table 10)): 5.60; End pH (eNOS system [1]; loin, 20% injection of test brine (Table 10)): 5.62; End pH (eNOS system [1]; loin, 25% injection of test brine (Table 10)): 6.51; End pH (eNOS system [1]; tenderloin, immersion in test brine (Table 10) approximately 18 hr): 6.10 and 6.15 and 6.13 and 6.12; Brine pH (eNOS system [1]; test brine of Table 10: L-arginine 5574.90 ppm, no phosphate): 10.79; Total Heme (NOS system [2]; [6]): 22.21^a ppm; NO-Heme (NOS system [2]; [7]): 12.95^a ppm; Nitrosylation (NOS system [2]; [7]): 45.28^a %; NO-Heme (NOS system [2]; [8]): 8.21^a ppm; Total Heme (NOS system [2]; [8]): 22.21^a ppm; nitrosylation percentage (NOS system [2]; from the low to high concentrations, one day after thermal processing): 37 to 60%; cured color (FIG. 8) (NOS system [2]; high concentration (5000 ppm) L-arginine): pink cured color formation; cured color (FIG. 8) (NOS system [2]; low concentration (1000 ppm) L-arginine): slight cured color; Residual Post rigor Nitrite ([3]; 2 mM L-arginine, cooked pellet): 19.36^b ppm; Residual Pre-rigor Nitrite ([3]; 2 mM L-arginine, cooked pellet): 22.87^a ppm; Residual Post rigor Nitrite [3, 9]: 61.12 ppm and 61.12^a ppm; Residual Pre-rigor Nitrite [3, 9]: 50.72 ppm and 50.72^a ppm; Residual Post rigor Nitrite [3, 10]: 9.42^a ppm; Residual Pre-rigor Nitrite [3, 10]: 15.26^a ppm; Residual Post rigor Nitrite ([3]; 4 mM L-arginine, cooked pellet): 23.72 ppm and 23.72^ab ppm; Residual Pre-rigor Nitrite ([3]; 4 mM L-arginine, cooked pellet): 22.64^a ppm; Residual Post rigor Nitrite [3, 11]: 61.93 ppm and 61.93^a ppm; Residual Pre-rigor Nitrite [3, 11]: 47.72 ppm and 47.72^ab ppm; Residual Post rigor Nitrite [3, 12]: 14.50^a ppm; Residual Pre-rigor Nitrite [3, 12]: 34.93^a ppm; Residual Post rigor Nitrite ([3]; 8 mM L-arginine, cooked pellet): 22.06 ppm and 22.06^ab ppm; Residual Pre-rigor Nitrite ([3]; 8 mM L-arginine, cooked pellet): 19.70^a ppm; Residual Post rigor Nitrite [3, 13]: 52.69 ppm and 52.69^ab ppm; Residual Pre-rigor Nitrite [3, 13]: 38.63 ppm and 38.63^ab ppm; Residual Post rigor Nitrite [3, 14]: 21.83^a ppm; Residual Pre-rigor Nitrite [3, 14]: 44.58^a ppm; Residual Post rigor Nitrite [3, 15]: 22.15 ppm and 22.15^ab ppm; Residual Pre-rigor Nitrite [3, 15]: 31.94^a ppm; Residual Post rigor Nitrite [3, 16]: 53.74 ppm and 53.74^a ppm; Residual Pre-rigor Nitrite [3, 16]: 24.62 ppm and 24.62^ab ppm; Residual Post rigor Nitrite [3, 17]: 23.54^a ppm; Residual Pre-rigor Nitrite [3, 17]: 11.92^a ppm; Residual Post rigor Nitrite [3, 18]: 32.87 ppm and 32.87^a ppm; Residual Pre-rigor Nitrite [3, 18]: 40.14 ppm and 40.14^a ppm; Residual Post rigor Nitrite [3, 19]: 52.90 ppm and 52.90^ab ppm; Residual Pre-rigor Nitrite [3, 19]: 20.08 ppm and 20.08^ab ppm; Residual Post rigor Nitrite [3, 20]: 16.51^a ppm; Residual Pre-rigor Nitrite [3, 20]: 22.09^a ppm; Residual Nitrite ([3]; pre-rigor raw supernatant, range over all concentrations of L-arginine): 11.92-44.58 ppm; residual nitrite levels ([3]; raw post rigor supernatant, range over all concentrations of L-arginine): 9.06-23.54 ppm; Injected Loin pH (eNOS system [4]; 10% injection of test brine (Table 8)): 7.15 and 7.12; Injected Loin pH (eNOS system [4]; 15% injection of test brine (Table 8)): 7.09 and 7.08; Injected Loin pH (eNOS system [4]; 20% injection of test brine (Table 8)): 7.03 and 7.14; Injected Loin pH (eNOS system [4]; 25% injection of test brine (Table 8)): 7.18 and 7.09; increase of muscle pH (eNOS system [4]; after injection of test brine with sodium tri-polyphosphate): ~2.0 pH units; cured color formation after cooking (eNOS system [4]; pork loin sections injected 10, 15, 20 or 25%, held two hours, cooked to 145° F.): no observable cured color formation; Brine pH (eNOS system [4]; test brine of Table 8: L-arginine 5545.41 ppm, with sodium tri-polyphosphate, salt, sugar, sodium erythorbate): 10.55; NO-Heme (NOS system [5]; [21]): 14.59^a ppm; Nitrosylation (NOS system [5]; [21]): 38.65^a %; Total Heme (NOS system [5]; [21]): 37.4^a ppm; NO-Heme (NOS system [5]; [6]): 13.43^b ppm; Nitrosylation (NOS system [5]; [6]): 60.58^b %; Total Heme (NOS system [5]; [7]): 28.56^b ppm; Nitrosylation (NOS system [5]; [8]): 37.05^a %; decrease in nitrosylation (NOS system [5]; during 8 days of refrigerated vacuum packaged storage): 38-45%
